Read-outs that look alike come from different tables or passages of the source.
Tests used:
[1] = cited from earlier work
[2] = cited from earlier work; remark: listed apart in the source
[3] = cited from earlier work; remark: listed apart in the source
plasma protein = details: once in the circulation; cited from earlier work
[4] = behaviour of ketorolac tromethamine solutions outside pH 6.0-8.5; format: physicochemical
From the text: In the present invention, a stable and injectable pharmaceutical composition which contains an acetic acid class of NSAID is described. The pH value of the injectable pharmaceutical composition is maintained at 6.0-8.5, preferably 6.9-7.9. When the pH values of the ketorolac tromethamine solutions are lower than 6, the NSAID precipitates from the solutions.
(4). Measure the pH of the solution in (3). If the pH is below 6.0, add an appropriate amount of the alkaline agent as described in (A) of the above “pH-adjusting agent” to the solution. If the pH is above 8.5, add an appropriate amount of the acidic agent as described in (B) of the above “pH-adjusting agent” to the solution. Cloudiness is observed when the pH of the solution is below 6. The solution will become clear after the pH adjustment to between 6.0-8.5.

[5] = cited from earlier work; remark: listed apart in the source
[6] = white to off-white crystalline substance; cited from earlier work

behaviour of solution ([4]; pH higher than 8.5)	behaviour of solution ([4]; pH lower than 6)	Compound	water solubility [1]	time at which serum concentration reaches a peak ([2]; route not given)	pKa [3]	plasma protein bound (plasma protein) [%]	onset of the anti-inflammatory, analgesic, and antipyretic effects ([5]; after the intramuscular administration) [min]	time to maximum effect ([5]; after the intravenous or intramuscular administrations) [h]	duration of therapeutic effects ([5]; in vivo) [h]	terminal elimination half-life ([2]; geriatric patients) [h]	terminal elimination half-life ([2]; young adults) [h]	behaviour under prolonged exposure to light [6]
–	–	O=C(c1ccccc1)c1ccc2n1CCC2C(=O)O (racemic) [ketorolac, (±)-5-benzoyl-2,3-dihydro-1H-pyrrolizine-1-carboxylic acid]	low	about 2.9±1.8 minutes	–	–	–	–	–	–	–	–
color of the solutions changes	precipitates	NC(CO)(CO)CO.O=C(c1ccccc1)c1ccc2n1CCC2C(=O)O (stereo not shown) [ketorolac tromethamine]	enhanced	–	3.5	99	30 to 60	1 to 2	4 to 6	4.7 to 8.6	3.8 to 6.3	discolors

— US20030191187A1, “Injectable pharmaceutical composition containing a non-steroidal anti-inflammatory drug and method for preparing the same” (priority 2002, published 2003)
